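Briefly, cells in 96-well plates were exposed to five compound concentrations for 48 h, and endpoints were estimated by linear interpolation. GI50 marks 50% less growth.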 The source made the active and inactive calls. No stated cut-off is given here; in the data, active = GI50 up to about 1.1 µM and inactive = higher.
How the values were obtained:
Test in all cases: NCI anticancer screen, dose series, 48 h
A498 = test system: A498
A549 = test system: A549
ACHN = test system: ACHN
DLD-1 = test system: DLD-1
DMS-114 = test system: DMS-114
EKVX = test system: EKVX
HCC 2998 = test system: HCC 2998
HCT-116 = test system: HCT-116
HCT-15 = test system: HCT-15
HL-60 = test system: HL-60
HOP-62 = test system: HOP-62
HT-29 = test system: HT-29
IGROV-1 = test system: IGROV-1
K562 = test system: K562
KM-20L2 = test system: KM-20L2
KM12 = test system: KM12
LOX IMVI = test system: LOX IMVI
LXFL 529 = test system: LXFL 529
M14 = test system: M14
MOLT-4 = test system: MOLT-4
Malme-3M = test system: Malme-3M
NCI-H226 = test system: NCI-H226
NCI-H23 = test system: NCI-H23
NCI-H460 = test system: NCI-H460
OVCAR-3 = test system: OVCAR-3
OVCAR-4 = test system: OVCAR-4
OVCAR-5 = test system: OVCAR-5
RXF 393 = test system: RXF 393
RXF 631 = test system: RXF 631
SF-268 = test system: SF-268
SF-295 = test system: SF-295
SF-539 = test system: SF-539
SK-MEL-28 = test system: SK-MEL-28
SK-OV-3 = test system: SK-OV-3
SN12C = test system: SN12C
SNB-19 = test system: SNB-19
SNB-75 = test system: SNB-75
SNB-78 = test system: SNB-78
SR = test system: SR
SW-620 = test system: SW-620
TK-10 = test system: TK-10
U-251 = test system: U-251
UACC-257 = test system: UACC-257
UACC-62 = test system: UACC-62
UO-31 = test system: UO-31
XF498 = test system: XF498
786-0 = test system: 786-0
CAKI-1 = test system: CAKI-1
CCRF-CEM = test system: CCRF-CEM
COLO 205 = test system: COLO 205
DMS-273 = test system: DMS-273
HOP-18 = test system: HOP-18
HOP-92 = test system: HOP-92
M19-MEL = test system: M19-MEL
NCI-H522 = test system: NCI-H522
OVCAR-8 = test system: OVCAR-8
SK-MEL-2 = test system: SK-MEL-2
RPMI-8226 = test system: RPMI-8226
SK-MEL-5 = test system: SK-MEL-5

Measured: GI50

O=C1NC2(CCCCC2)C2CCCCCC12 (stereo unspecified)
inactive: A498 > 100 µM | A549 > 100 µM | ACHN > 100 µM | DLD-1 > 100 µM | DMS-114 > 100 µM | EKVX > 100 µM | HCC 2998 > 100 µM | HCT-116 > 100 µM | HL-60 > 100 µM | HOP-62 > 100 µM | HT-29 > 100 µM | IGROV-1 > 100 µM | K562 > 100 µM | KM-20L2 > 100 µM | KM12 > 100 µM | LOX IMVI > 100 µM | LXFL 529 > 100 µM | M14 > 100 µM | MOLT-4 > 100 µM | Malme-3M > 100 µM | NCI-H226 > 100 µM | NCI-H23 > 100 µM | NCI-H460 > 100 µM | OVCAR-3 > 100 µM | OVCAR-4 > 100 µM | OVCAR-5 > 100 µM | RXF 393 > 100 µM | RXF 631 > 100 µM | SF-268 > 100 µM | SF-295 > 100 µM | SF-539 > 100 µM | SK-MEL-28 > 100 µM | SK-OV-3 > 100 µM | SN12C > 100 µM | SNB-19 > 100 µM | SNB-75 > 100 µM | SNB-78 > 100 µM | SR > 100 µM | SW-620 > 100 µM | TK-10 > 100 µM | U-251 > 100 µM | UACC-257 > 100 µM | UACC-62 > 100 µM | UO-31 > 100 µM | XF498 > 100 µM
> 100 µM: HCT-15

COC(=O)C12C34C=CC5(CCC6(C=CC1(CC3)O6)C52C(=O)OC)O4 (stereo unspecified)
inactive: 786-0 > 100 µM | A498 93.3 µM | A549 > 100 µM | ACHN > 100 µM | CAKI-1 > 100 µM | CCRF-CEM > 100 µM | COLO 205 > 100 µM | DMS-273 > 100 µM | EKVX > 100 µM | HCC 2998 > 100 µM | HCT-116 > 100 µM | HL-60 > 100 µM | HOP-18 > 100 µM | HOP-62 > 100 µM | HOP-92 > 100 µM | HT-29 > 100 µM | IGROV-1 > 100 µM | K562 > 100 µM | KM-20L2 > 100 µM | KM12 > 100 µM | LOX IMVI > 100 µM | LXFL 529 > 100 µM | M19-MEL > 100 µM | MOLT-4 > 100 µM | Malme-3M > 100 µM | NCI-H226 > 100 µM | NCI-H23 > 100 µM | NCI-H460 > 100 µM | NCI-H522 > 100 µM | OVCAR-4 > 100 µM | OVCAR-5 > 100 µM | OVCAR-8 > 100 µM | RXF 393 75 µM | RXF 631 > 100 µM | SF-268 > 100 µM | SF-295 > 100 µM | SF-539 > 100 µM | SK-MEL-28 > 100 µM | SK-MEL-2 > 100 µM | SK-OV-3 > 100 µM | SN12C > 100 µM | SNB-19 > 100 µM | SNB-78 > 100 µM | SR > 100 µM | SW-620 > 100 µM | TK-10 > 100 µM | U-251 > 100 µM | UACC-257 > 100 µM | XF498 46.8 µM

Cn1c2c(c3ccccc31)CCN(CCCCN1CCCCC1)C2=O
> 100 µM: HCT-15
inactive: 786-0 > 100 µM | A498 > 100 µM | A549 > 100 µM | ACHN > 100 µM | CAKI-1 > 100 µM | CCRF-CEM > 100 µM | COLO 205 > 100 µM | DLD-1 > 100 µM | DMS-273 > 100 µM | EKVX > 100 µM | HCT-116 84.5 µM | HL-60 > 100 µM | HOP-18 > 100 µM | HOP-62 > 100 µM | HOP-92 > 100 µM | HT-29 61 µM | IGROV-1 > 100 µM | K562 > 100 µM | KM-20L2 > 100 µM | LXFL 529 > 100 µM | M14 99.1 µM | M19-MEL 60.1 µM | MOLT-4 > 100 µM | NCI-H23 > 100 µM | NCI-H460 > 100 µM | NCI-H522 > 100 µM | OVCAR-3 > 100 µM | OVCAR-4 > 100 µM | OVCAR-5 > 100 µM | OVCAR-8 > 100 µM | RPMI-8226 > 100 µM | RXF 393 > 100 µM | RXF 631 > 100 µM | SF-268 51.1 µM | SF-295 > 100 µM | SF-539 > 100 µM | SK-MEL-28 16.8 µM | SK-MEL-2 > 100 µM | SK-MEL-5 > 100 µM | SK-OV-3 > 100 µM | SN12C > 100 µM | SNB-19 > 100 µM | SNB-78 43.1 µM | SW-620 > 100 µM | TK-10 > 100 µM | U-251 > 100 µM | UACC-257 62.7 µM | UACC-62 28.3 µM | UO-31 > 100 µM | XF498 > 100 µM

N#Cc1sc2nc3c(c(-c4ccccc4)c2c1N)CCCC3
60.5 µM: HCT-15
active: DMS-114 0.225 µM
inactive: 786-0 46 µM | A498 > 100 µM | A549 > 100 µM | ACHN 76.9 µM | CAKI-1 > 100 µM | CCRF-CEM > 100 µM | DMS-273 57.9 µM | HCC 2998 > 100 µM | HCT-116 33.2 µM | HL-60 > 100 µM | HOP-62 > 10 µM | HOP-92 30.1 µM | HT-29 > 100 µM | K562 > 100 µM | KM12 > 100 µM | LOX IMVI 48 µM | LXFL 529 > 100 µM | M14 > 10 µM | M19-MEL > 100 µM | MOLT-4 > 100 µM | Malme-3M > 100 µM | NCI-H226 > 100 µM | NCI-H23 > 100 µM | NCI-H460 55.2 µM | NCI-H522 66.5 µM | OVCAR-3 > 10 µM | OVCAR-4 > 100 µM | OVCAR-5 > 100 µM | OVCAR-8 > 100 µM | RPMI-8226 > 100 µM | RXF 393 41.8 µM | RXF 631 9.25 µM | SF-295 22.1 µM | SF-539 23.9 µM | SK-MEL-28 > 100 µM | SK-MEL-2 > 100 µM | SK-OV-3 39.4 µM | SN12C > 100 µM | SNB-19 56.8 µM | SNB-78 56 µM | SR > 100 µM | SW-620 > 100 µM | TK-10 > 100 µM | U-251 39.8 µM | UACC-257 > 100 µM | UACC-62 > 100 µM | UO-31 > 100 µM | XF498 37.9 µM

CC(C)S(=O)(=O)ON1C(=O)c2ccc([N+](=O)[O-])cc2C1=O
> 100 µM: HCT-15
inactive: 786-0 > 100 µM | A498 > 100 µM | A549 > 100 µM | ACHN > 100 µM | CAKI-1 > 100 µM | CCRF-CEM > 100 µM | COLO 205 > 100 µM | DLD-1 > 100 µM | DMS-114 > 100 µM | DMS-273 > 100 µM | EKVX > 100 µM | HCC 2998 > 100 µM | HCT-116 > 100 µM | HL-60 > 100 µM | HOP-18 > 100 µM | HOP-62 > 100 µM | HOP-92 41.9 µM | HT-29 > 100 µM | IGROV-1 > 100 µM | K562 > 100 µM | KM12 > 100 µM | LXFL 529 > 100 µM | M14 > 100 µM | M19-MEL > 100 µM | Malme-3M > 100 µM | NCI-H226 > 100 µM | NCI-H23 > 100 µM | NCI-H460 > 100 µM | NCI-H522 > 100 µM | OVCAR-3 > 100 µM | OVCAR-4 > 100 µM | OVCAR-5 > 100 µM | OVCAR-8 > 100 µM | RXF 393 > 100 µM | RXF 631 > 100 µM | SF-268 > 100 µM | SF-295 > 100 µM | SF-539 > 100 µM | SK-MEL-28 > 100 µM | SK-MEL-2 > 100 µM | SK-MEL-5 > 100 µM | SK-OV-3 > 100 µM | SN12C > 100 µM | SNB-19 > 100 µM | SNB-75 > 100 µM | SNB-78 > 100 µM | SR > 100 µM | SW-620 > 100 µM | TK-10 > 100 µM | U-251 > 100 µM | UACC-257 > 100 µM | UACC-62 > 100 µM | UO-31 > 100 µM | XF498 > 100 µM

Source: ChEMBL document CHEMBL1201862, “PubChem BioAssay data set” (2004)
